“And” between values parts separate entries of the source, which are not always exact repeats. Identical values can stand only once.
Tests used:
[1] = tested on: AMPA receptor ([^3 H]AMPA binding, crude membranes of rat forebrain); test: [^3 H]-AMPA displacement, EAA receptor binding; details: 10 μM test compound, [^3 H]AMPA 5 nM, 100 mM KSCN
Protocol: (§1) Referring to Table IV, there are shown the results obtained in testing a representative number of these compounds. In Table IV, the activity of the compounds for EAA receptor binding is indicated. Compounds were evaluated for their ability to displace [^3 H]-CGS191755, [^3 H]-glycine, [^3 H]-AMPA and [^3 H]-kainate at a screening concentration of 10 μM.
(§2) Binding assays, except for glycine binding, were performed in accordance with the methods described in Schoepp et al., J. Pharmacology and Exp. Therap., Vol. 255, No. 3, pp. 1301-1308 (1990). For all binding assays, male Sprague-Dawley rats (150-175 g) were used. Displacement of the specific binding of ^3 H]CGS19755 (10 nM) to Triton-X-treated synaptosomal membranes of rat forebrain was used to determine NMDA receptor affinity. Nonspecific binding was determined using 10 μM L-glutamate. Samples were incubated in an ice bath for 30 minutes, and bound ligand was separated from the free ligand by rapid filtration through Whatman GF/B glass fiber filters.
The binding of [^3 H]AMPA (5 nM) was conducted with crude membranes of rat forebrain in the presence of 100 mM KSCN, as described by Nielsen et al., "Studies on Receptor-Active Conformations of Excitatory Amino Acid Agonists and Antagonists," Eur. J. Med. Chem. Chim. Ther. 21:433-437 (1986). Nonspecific binding was determined with 10 μM nonlabeled AMPA.

[2] = target: T1, Strychnine-Insensitive [^3 H]Glycine Binding Sites, washed membranes of rat brain cortex (Rattus norvegicus, UniProt P35439); test: biochemical; details: for inhibition at 10 µM: 1 h, read-out: [^3 H]-Glycine Binding % DSPL10 @ 10 μM, 10 μM test compound, 60 minutes on ice; for [^3 H]-Glycine Binding % DSPL10 @ 10 μM: 10 μM test compound, 60 minutes on ice
T1 construct: washed membranes of rat brain cortex; from tissue; host or cells: brain cortex membranes, male Sprague-Dawley rats (150-175 g)
Protocol: as §1, §2
The compounds were examined for their ability to displace [^3 H]-glycine from washed membranes of rat brain cortex according to the methods of Shinohara et al., "Ontogeny of Strychnine-Insensitive [^3 H]Glycine Binding Sites in Rat Forebrain", Neurosci. Lett. 105 (1990) 307-311. In each assay, […] [^3 H]-glycine and 25 μg tissue were incubated with test compounds (10 μM in a total volume of 0.5 ml for 60 minutes on ice; incubations were terminated by centrifugation. Non-specific binding was defined as that remaining in the presence of 10 μM D-serine.

[3] = tested on: kainate (KA) receptor ([^3 H]Kainate binding, washed synaptosomal membranes from the rat forebrain); test: [^3 H]-kainate displacement, EAA receptor binding; details: 10 μM test compound, [^3 H]Kainate 5 nM, pH 7.4, 30 min
Protocol: as §1, §2
[^3 H]Kainate binding was performed using washed synaptosomal membranes from the rat forebrain, prepared as described by Simon et al., "Binding of [^3 H]Kainic Acid, an Analogue of L-Glutamate, to Brain Membranes," J. Neurochem. 26:141-147 (1976). [^3 H]Kainate (5 nM) was added to 50 mM Tris-HCl buffer (pH 7.4 at 4°) containing 200-300 μg/ml of tissue protein. Samples were incubated for 30 minutes in an ice bath and then rapidly filtered using a Brandel cell harvester and Whatman GF/C filters. Filters were washed twice with 3 ml of cold buffer. Nonspecific binding was determined using 100 μM nonlabeled kainate.

| Structure (SMILES) | AMPA % DSPL @ 10 μM [1] [%] | inhibition at 10 µM [2] [%] | KA % DSPL @ 10 μM [3] [%] | AMPA % DSPL @ 10 μM ([1]; 10 µM) | [^3 H]-Glycine Binding % DSPL10 @ 10 μM ([2]; 60 min, 10 µM) | KA % DSPL @ 10 μM ([3]; 10 µM) | [^3 H]-Glycine Binding % DSPL10 @ 10 μM [2] [%] |
| --- | --- | --- | --- | --- | --- | --- | --- |
| Cc1nnc2cnc3cc(Cl)c(Cl)cc3n12 [Compound 1, 1-methyl-7,8-dichloro-1,2,4-triazolo[4,3-a]quinoxaline] | 35.1 | 0 | 16.8 | – | – | – | – |
| Cc1nnc2c(=O)[nH]c3cc(Cl)c(Cl)cc3n12 [Compound 2, 1-methyl-7,8-dichloro-1,2,4-triazolo[4,3-a]quinoxalin-4(5H)-one] | – | 18 | 28.0 | 78.3% and 75.1% | – | – | – |
| CCc1nnc2cnc3cc(Cl)c(Cl)cc3n12 [Compound 3, 1-ethyl-7,8-dichloro-1,2,4-triazolo[4,3-a]quinoxaline] | 7.9 | 63 | 12.0 | – | – | – | – |
| CCc1nnc2c(=O)[nH]c3cc(Cl)c(Cl)cc3n12 [Compound 4, 1-ethyl-7,8-dichloro-1,2,4-triazolo[4,3-a]quinoxalin-4(5H)-one] | – | 53 | 21.4 | 55.1% and 52.3% | – | – | – |
| CCCc1nnc2cnc3cc(Cl)c(Cl)cc3n12 [Compound 5, 1-n-propyl-7,8-dichloro-1,2,4-triazolo[4,3-a]quinoxaline] | -1.6 | 2 | 3.9 | – | – | – | – |
| CCCc1nnc2c(=O)[nH]c3cc(Cl)c(Cl)cc3n12 [Compound 6, 1-n-propyl-7,8-dichloro-1,2,4-triazolo[4,3-a]quinoxalin-4(5H)-one] | – | 75 | 32.1 | 77.1% and 85.6% | – | – | – |
| CCCCc1nnc2cnc3cc(Cl)c(Cl)cc3n12 [Compound 7, 1-n-butyl-7,8-dichloro-1,2,4-triazolo[4,3-a]quinoxaline] | 4.2 | -2 | -6.4 | – | – | – | – |
| CCCCc1nnc2c(=O)[nH]c3cc(Cl)c(Cl)cc3n12 [Compound 8, 1-n-butyl-7,8-dichloro-1,2,4-triazolo[4,3-a]quinoxalin-4(5H)-one] | – | 60 | 33.8 | – | – | – | – |
| FC(F)(F)c1nnc2cnc3cc(Cl)c(Cl)cc3n12 [Compound 9, 1-trifluoromethyl-7,8-dichloro-1,2,4-triazolo[4,3-a]quinoxaline] | – | -6 | – | – | – | – | – |
| O=c1[nH]c2cc(Cl)c(Cl)cc2n2c(C(F)(F)F)nnc12 [Compound 10, 1-trifluoromethyl-7,8-dichloro-1,2,4-triazolo [4,3-a]quinoxalin-4(5H)-one] | – | 40 | 12.5 | 56.8% and 38.5% | – | – | – |
| Clc1cc2ncc3nnc(-c4ccccc4)n3c2cc1Cl [Compound 11, 1-phenyl-7,8-dichloro-1,2,4-triazolo[4,3-a]quinoxaline] | 1.7 | -3 | 9.1 | – | – | – | – |
| O=c1[nH]c2cc(Cl)c(Cl)cc2n2c(-c3ccccc3)nnc12 [Compound 12, 1-Phenyl-7,8-dichloro-1,2,4-triazolo[4,3-a]quinoxalin-4(5H)-one] | 3.6 | -1 | 8.2 | – | – | – | – |
| O=c1[nH]c2cc(Cl)c(Cl)cc2n2cnnc12 [Compound 12a, 7,8-dichloro-1,2,4-triazolo[4,3-a]quinoxalin-4(5H)-one] | – | – | – | 64.3% and 67.9% | 79% and 42% | – | – |
| O=c1[nH]c2cc(Cl)cc(Cl)c2n2cnnc12 [Compound 14a, 7,9-dichloro-1,2,4-triazolo[4,3a]quinoxalin-4(5H)-one] | – | 87 | – | – | – | – | – |
| Brc1ccc2ncc3nncn3c2c1 [Compound 15, 8-bromo-1,2,4-triazolo[4,3-a]quinoxaline] | 1.6 | -3 | -4.3 | – | – | – | – |
| O=[N+]([O-])c1ccc2c(c1)ncc1nncn12 [Compound 16, 7-nitro-1,2,4-triazolo[4,3-a]quinoxaline] | 1.7 | -5 | 3.0 | – | – | – | – |

| Structure (SMILES) | AMPA % DSPL @ 10 μM [1] [%] | inhibition at 10 µM [2] [%] | KA % DSPL @ 10 μM [3] [%] | AMPA % DSPL @ 10 μM ([1]; 10 µM) | [^3 H]-Glycine Binding % DSPL10 @ 10 μM ([2]; 60 min, 10 µM) | KA % DSPL @ 10 μM ([3]; 10 µM) | [^3 H]-Glycine Binding % DSPL10 @ 10 μM [2] [%] |
| --- | --- | --- | --- | --- | --- | --- | --- |
| O=c1[nH]c2cc([N+](=O)[O-])ccc2n2cnnc12 [Compound 17, 7-nitro-1,2,4-triazolo[4,3-a]quinoxalin-4(5H)-one] | – | 52 | 34.7 | 85.1% and 77.4% | – | – | – |
| O=c1[nH]c2cc([N+](=O)[O-])c([N+](=O)[O-])cc2n2cnnc12 [Compound 18, 7,8-dinitro-1,2,4-triazolo[4,3-a]quinoxalin-4(5H)-one] | – | 50 | 15.6 | 77.4% and 55.0% | – | – | – |
| O=c1[nH]c2ccc(Br)cc2n2nnnc12 [Compound 21, 8-bromotetrazolo[1,5-a]quinoxalin-4(5H)-one] | 10.2 | 6 | 30.8 | – | – | – | – |
| O=c1[nH]c2ccc([N+](=O)[O-])cc2n2nnnc12 [Compound 22, 8-nitrotetrazolo[1,5-a]quinoxalin-4(5H)-one] | 0.7 | 0 | 0.5 | – | – | – | – |
| O=[N+]([O-])c1ccc2c(c1)ncc1nnnn12 [Compound 23, 7-nitrotetrazolo[1,5-a]quinoxaline] | 1.0 | -1 | -3.8 | – | – | – | – |
| O=c1[nH]c2cc([N+](=O)[O-])ccc2n2nnnc12 [Compound 24, 7-nitrotetrazolo[1,5-a]quinoxalin-4(5H)-one] | 38.4 | 2 | 2.8 | – | – | – | – |
| O=c1[nH]c2cc([N+](=O)[O-])c([N+](=O)[O-])cc2n2nnnc12 [Compound 25, 7,8-dinitrotetrazolo[1,5-a]quinoxalin-4(5H)-one] | – | 3 | – | – | – | 0.4% and -2.1% | – |
| [N-]=[N+]=Nc1cc2c(cc1F)ncc1nnnn12 [Compound 26, 7-fluoro-8-azidotetrazoloquinoxaline] | -1.8 | – | 5.5 | – | – | – | -2 |
| [N-]=[N+]=Nc1cc2c(cc1F)[nH]c(=O)c1nnnn12 [Compound 27, 7-fluoro-8-azidotetrazoloquinoxalin-4(5H)-one] | 1.7 | 5 | 2.5 | – | – | – | – |
| O=c1[nH]c2cc(Cl)c(Cl)cc2n2nnnc12 [Compound 27a, 7,8-dichlorotetrazolo[1,5-a]quinoxalin-4(5H)-one] | 38 | 37 | – | – | – | – | – |
| O=c1[nH]c2ccc(Br)cc2c2ccnn12 [Compound 28, 9-bromopyrazolo[1,5-c]quinazolin-5(6H)-one] | 20.7 | 4 | 2.6 | – | – | – | – |
| O=c1[nH]c2ccc(Cl)cc2c2ccnn12 [Compound 29, 9-Chloropyrazolo[1,5-c]quinazolin 5(6H)-one] | 23.1 | 5 | 0.3 | – | – | – | – |
| O=c1[nH]c2c(Cl)cccc2c2ccnn12 [Compound 30, 7-Chloropyrazolo[1,5-c]quinazolin-5(6H)-one] | 14.8 | 0 | -0.4 | – | – | – | – |
| O=c1[nH]c2cc(Cl)ccc2c2ccnn12 [Compound 31, 8-chloropyrazolo[1,5-c]quinazolin-5(6H)-one] | 46 | 42 | 11.5 | – | – | – | – |
| O=c1[nH]c2cc(Cl)c(Cl)cc2c2ccnn12 [Compound 32, 8,9-dichloropyrazolo[1,5-c]quinazolin-5(6H)-one] | – | – | -0.1 | 4.9% and 9.3% | – | – | – |

Source: patent US5196421A, “Excitatory amino acid receptor antagonists in methods for the use thereof” (priority 1992, dated 1993)
